Measured values published in patent US20240132431A1, “METHOD FOR ALKYLATING ACIDIC FUNCTIONAL GROUP” (Chugai Seiyaku Kabushiki Kaisha, priority 2021, published 2024).

Molecular target: T1, Bcl-2 protein (Recombinant Human Bcl-2 Protein) (Homo sapiens, UniProt P10415)
T1 construct: purchased Novus NBP2-34889
Assay: Binding evaluation of mixture library compounds to Bcl-2 using AS-MS (affinity selection mass spectrometry)
Conditions: ASMS Ratio(%)=(A−C)/B×100; for ASMS ratio (%) n = 1: replicate n = 1; for ASMS ratio (%) n = 2: replicate n = 2
In short: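 Bcl-2 binding is scored from LC/MS signal retained with protein through gel-filtration spin columns, normalised to unfiltered and protein-free controls. Incubation: 20 μM protein, […] per compound, 1 h, 23° C.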

[1] = AS-MS on the mixture of 1200 library compounds

T1 sequence (P10415 whole entry): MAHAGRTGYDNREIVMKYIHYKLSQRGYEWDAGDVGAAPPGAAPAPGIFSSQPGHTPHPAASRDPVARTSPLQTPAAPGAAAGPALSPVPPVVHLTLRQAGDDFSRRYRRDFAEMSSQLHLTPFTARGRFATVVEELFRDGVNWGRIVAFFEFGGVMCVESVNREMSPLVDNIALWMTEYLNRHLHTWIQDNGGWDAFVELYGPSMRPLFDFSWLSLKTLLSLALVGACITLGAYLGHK

| ASMS ratio (%) n = 1 [1] [%] | ASMS ratio (%) n = 2 [1] [%] | ASMS ratio (%) n = 1 (AS-MS, mixture library, Bcl-2) [%] | ASMS ratio (%) n = 2 (AS-MS, mixture library, Bcl-2) [%] | SMILES |
| --- | --- | --- | --- | --- |
| 4.5 | 1.3 | – | – | CCOc1cccc(-c2ccc(CN3CCN(c4ccc(C(=O)Nc5ccc(OC)cc5)nn4)CC3)c(OC)c2)c1 [B1O079-01, 6-[4-[[4-(3-Ethoxyphenyl)-2-methoxyphenyl]methyl]piperazin-1-yl]-N-(4-methoxyphenyl)pyridazine-3-carboxamide] |
| 1.4 | 3.4 | – | – | CCOc1cncc(-c2ccc(CN3CCN(c4ccc(C(=O)Nc5ccc(OC)cc5)nn4)CC3)c(OC)c2)c1 [B1O080-01, 6-[4-[[4-(5-Ethoxypyridin-3-yl)-2-methoxyphenyl]methyl]piperazin-1-yl]-N-(4-methoxyphenyl)pyridazine-3-carboxamide] |
| 3.2 | −2.2 | – | – | CCOc1cccc(-c2cc(CN3CCN(c4ccc(C(=O)Nc5ccc(OC)cc5)nn4)CC3)cc(OCC)c2)c1 [B1O081-01, 6-[4-[[3-Ethoxy-5-(3-ethoxyphenyl)phenyl]methyl]piperazin-1-yl]-N-(4-methoxyphenyl)pyridazine-3-carboxamide] |
| 1.5 | 2.6 | – | – | CCOc1cncc(-c2cc(CN3CCN(c4ccc(C(=O)Nc5ccc(OC)cc5)nn4)CC3)cc(OCC)c2)c1 [B1O082-01, 6-[4-[[3-Ethoxy-5-(5-ethoxypyridin-3-yl)phenyl]methyl]piperazin-1-yl]-N-(4-methoxyphenyl)pyridazine-3-carboxamide] |
| 7.2 | 1.0 | – | – | CCOc1cccc(-c2cc(CN3CCN(c4ccc(C(=O)Nc5ccc(OC)cc5)nn4)CC3)cc(OC(C)C)c2)c1 [B1O083-01, 6-[4-[[3-(3-Ethoxyphenyl)-5-propan-2-yloxyphenyl]methyl]piperazin-1-yl]-N-(4-methoxyphenyl)pyridazine-3-carboxamide] |
| 6.8 | 2.0 | – | – | CCOc1cncc(-c2cc(CN3CCN(c4ccc(C(=O)Nc5ccc(OC)cc5)nn4)CC3)cc(OC(C)C)c2)c1 [B1O084-01] |
| −1.1 | −3.1 | – | – | CCOc1cccc(-c2cc(OC)c(CN3CCN(c4ccc(C(=O)Nc5ccc(OC)cc5)nn4)CC3)c(OC)c2)c1 [B1O085-01, 6-[4-[[4-(3-Ethoxyphenyl)-2,6-dimethoxyphenyl]methyl]piperazin-1-yl]-N-(4-methoxyphenyl)pyridazine-3-carboxamide] |
| – | −0.4 | – | – | CCOc1cncc(-c2cc(OC)c(CN3CCN(c4ccc(C(=O)Nc5ccc(OC)cc5)nn4)CC3)c(OC)c2)c1 [B1O086-01, 6-[4-[[4-(5-Ethoxypyridin-3-yl)-2,6-dimethoxyphenyl]methyl]piperazin-1-yl]-N-(4-methoxyphenyl)pyridazine-3-carboxamide] |
| 2.2 | −0.5 | – | – | CCOc1cccc(-c2cc(CN3CCN(c4ccc(C(=O)Nc5ccc(OC)cc5)nn4)CC3)cc(C(F)(F)F)c2)c1 [B1O087-01] |
| 3.1 | 1.4 | – | – | CCOc1cncc(-c2cc(CN3CCN(c4ccc(C(=O)Nc5ccc(OC)cc5)nn4)CC3)cc(C(F)(F)F)c2)c1 [B1O088-01] |
| 3.8 | −5.3 | – | – | CCOc1cccc(-c2cc(CN3CCN(c4ccc(C(=O)Nc5ccc(OC)cc5)nn4)CC3)cc(OC(F)(F)F)c2)c1 [B1O089-01, 6-[4-[[3-(3-Ethoxyphenyl)-5-(trifluoromethoxy)phenyl]methyl]piperazin-1-yl]-N-(4-methoxyphenyl)pyridazine-3-carboxamide] |
| 3.3 | −2.0 | – | – | CCOc1cncc(-c2cc(CN3CCN(c4ccc(C(=O)Nc5ccc(OC)cc5)nn4)CC3)cc(OC(F)(F)F)c2)c1 [B1O090-01, 6-[4-[[3-(5-Ethoxypyridin-3-yl)-5-(trifluoromethoxy)phenyl]methyl]piperazin-1-yl]-N-(4-methoxyphenyl)pyridazine-3-carboxamide] |
| 4.5 | 2.2 | – | – | CCOc1cccc(-c2ccc(CN3CCN(c4ccc(C(=O)Nc5ccc(OC)cc5)nn4)CC3)c3ccccc23)c1 [B1O091-01] |
| 6.3 | −1.4 | – | – | CCOc1cncc(-c2ccc(CN3CCN(c4ccc(C(=O)Nc5ccc(OC)cc5)nn4)CC3)c3ccccc23)c1 [B1O092-01, 6-[4-[[4-(5-Ethoxypyridin-3-yl)naphthalen-1-yl]methyl]piperazin-1-yl]-N-(4-methoxyphenyl)pyridazine-3-carboxamide] |
| 0.0 | 0.6 | – | – | CCOc1cccc(-c2csc(CN3CCN(c4ccc(C(=O)Nc5ccc(OC)cc5)nn4)CC3)c2)c1 [B1O093-01, 6-[4-[[4-(3-Ethoxyphenyl)thiophen-2-yl]methyl]piperazin-1-yl]-N-(4-methoxyphenyl)pyridazine-3-carboxamide] |
| 2.2 | −0.7 | – | – | CCOc1cncc(-c2csc(CN3CCN(c4ccc(C(=O)Nc5ccc(OC)cc5)nn4)CC3)c2)c1 [B1O094-01, 6-[4-[[4-(5-Ethoxypyridin-3-yl)thiophen-2-yl]methyl]piperazin-1-yl]-N-(4-methoxyphenyl)pyridazine-3-carboxamide] |
| 2.7 | 0.0 | – | – | CCOc1cccc(C#Cc2ccccc2CN2CCN(c3ccc(C(=O)Nc4ccc(OC)cc4)nn3)CC2)c1 [B1O095-01, 6-[4-[[2-[2-(3-Ethoxyphenyl)ethynyl]phenyl]methyl]piperazin-1-yl]-N-(4-methoxyphenyl)pyridazine-3-carboxamide] |
| 0.0 | 3.5 | – | – | CCOc1cncc(C#Cc2ccccc2CN2CCN(c3ccc(C(=O)Nc4ccc(OC)cc4)nn3)CC2)c1 [B1O096-01, 6-[4-[[2-[2-(5-Ethoxypyridin-3-yl)ethynyl]phenyl]methyl]piperazin-1-yl]-N-(4-methoxyphenyl)pyridazine-3-carboxamide] |
| 4.2 | 2.2 | – | – | CCOc1cccc(-c2ccc(C(C)N3CCN(c4ccc(C(=O)Nc5ccc(OC)cc5)cc4)CC3)cc2)c1 (stereo not shown) [B1O097-01, 4-[4-[1-[4-(3-Ethoxyphenyl)phenyl]ethyl]piperazin-1-yl]-N-(4-methoxyphenyl)benzamide] |
| −42.7 | −0.2 | – | – | CCOc1cncc(-c2ccc(C(C)N3CCN(c4ccc(C(=O)Nc5ccc(OC)cc5)cc4)CC3)cc2)c1 (stereo not shown) [B1O098-01, 4-[4-[1-[4-(5-Ethoxypyridin-3-yl)phenyl]ethyl]piperazin-1-yl]-N-(4-methoxyphenyl)benzamide] |
| 4.7 | 1.7 | – | – | CCOc1cccc(-c2ccc(C(C)N3CCN(c4ccc(C(=O)Nc5ccc(OC)cc5)cc4)CC3)c(F)c2)c1 (stereo not shown) [B1O099-01, 4-[4-[1-[4-(3-Ethoxyphenyl)-2-fluorophenyl]ethyl]piperazin-1-yl]-N-(4-methoxyphenyl)benzamide] |
| −19.7 | 11.1 | – | – | CCOc1cncc(-c2ccc(C(C)N3CCN(c4ccc(C(=O)Nc5ccc(OC)cc5)cc4)CC3)c(F)c2)c1 (stereo not shown) [B1O100-01, 4-[4-[1-[4-(5-Ethoxypyridin-3-yl)-2-fluorophenyl]ethyl]piperazin-1-yl]-N-(4-methoxyphenyl)benzamide] |
| – | – | 0.0 | 0.0 | CCOc1cccc(-c2csc(C(=O)N3CCN(c4ccc(C(=O)NS(=O)(=O)CC56CC7CC(CC(C7)C5)C6)nn4)CC3)c2)c1 [B2A001-01, N-(1-Adamantylmethylsulfonyl)-6-[4-[4-(3-ethoxyphenyl)thiophene-2-carbonyl]piperazin-1-yl]pyridazine-3-carboxamide] |
| – | – | 0.0 | 0.0 | CCOc1cncc(-c2csc(C(=O)N3CCN(c4ccc(C(=O)NS(=O)(=O)CC56CC7CC(CC(C7)C5)C6)nn4)CC3)c2)c1 [B2A002-01, N-(1-Adamantylmethylsulfonyl)-6-[4-[4-(5-ethoxypyridin-3-yl)thiophene-2-carbonyl]piperazin-1-yl]pyridazine-3-carboxamide] |
| – | – | 21.0 | 11.0 | CCOc1cccc(-c2ccc(C(=O)N3CCN(c4ccc(C(=O)NS(=O)(=O)CC56CC7CC(CC(C7)C5)C6)nn4)CC3)cc2C)c1 [B2A003-01, N-(1-Adamantylmethylsulfonyl)-6-[4-[4-(3-ethoxyphenyl)-3-methylbenzoyl]piperazin-1-yl]pyridazine-3-carboxamide] |
| – | – | 0.0 | 0.0 | CCOc1cncc(-c2ccc(C(=O)N3CCN(c4ccc(C(=O)NS(=O)(=O)CC56CC7CC(CC(C7)C5)C6)nn4)CC3)cc2C)c1 [B2A004-01, N-(1-Adamantylmethylsulfonyl)-6-[4-[4-(5-ethoxypyridin-3-yl)-3-methylbenzoyl]piperazin-1-yl]pyridazine-3-carboxamide] |
| – | – | 4.7 | 12.4 | CCOc1cccc(-c2ccc(C(=O)N3CCN(c4ccc(C(=O)NS(=O)(=O)CC56CC7CC(CC(C7)C5)C6)nn4)CC3)cc2F)c1 [B2A005-01, N-(1-Adamantylmethylsulfonyl)-6-[4-[4-(3-ethoxyphenyl)-3-fluorobenzoyl]piperazin-1-yl]pyridazine-3-carboxamide] |
| – | – | 0.0 | 0.0 | CCOc1cncc(-c2ccc(C(=O)N3CCN(c4ccc(C(=O)NS(=O)(=O)CC56CC7CC(CC(C7)C5)C6)nn4)CC3)cc2F)c1 [B2A006-01, N-(1-Adamantylmethylsulfonyl)-6-[4-[4-(5-ethoxypyridin-3-yl)-3-fluorobenzoyl]piperazin-1-yl]pyridazine-3-carboxamide] |
